Assay results published in ChEMBL document CHEMBL1141026, “Synthesis, in vitro antitrypanosomal and antibacterial activity of phenoxy, phenylthio or benzyloxy substituted quinolones” (Bioorg Med Chem Lett, 2009).
Values after ≈ are worked out from the molar mass of the structure shown.

Columns and labels:
Trypanosoma cruzi = test: Antitrypanosomal activity against trypomastigotes of Trypanosoma cruzi Tulahuen C2C4 containing lacZ gene in rat L6 cells after 4 days; assay type: functional, organism-based; conditions: L6, 96 h
Shigella boydii = test: Antibacterial activity against Shigella boydii after 24 hrs by agar dilution method; assay type: functional
Shigella flexneri = test: Antibacterial activity against Shigella flexneri after 24 hrs by agar dilution method; assay type: functional
Proteus mirabilis = test: Antibacterial activity against Proteus mirabilis after 24 hrs by agar dilution method; assay type: functional
Proteus vulgaris = test: Antibacterial activity against Proteus vulgaris after 24 hrs by agar dilution method; assay type: functional
Pseudomonas aeruginosa = test: Antibacterial activity against Pseudomonas aeruginosa after 24 hrs by agar dilution method; assay type: functional
Morganella morganii = test: Antibacterial activity against Morganella morganii after 24 hrs by agar dilution method; assay type: functional
Klebsiella pneumoniae = test: Antibacterial activity against Klebsiella pneumoniae after 24 hrs by agar dilution method; assay type: functional
[1] = test system: Salmonella enterica subsp. enterica; test: Antibacterial activity against Salmonella enteritidis after 24 hrs by agar dilution method; assay type: functional, Salmonella enterica subsp. enterica serovar Enteritidis
Salmonella typhimurium = test: Antibacterial activity against Salmonella Typhimurium after 24 hrs by agar dilution method; assay type: functional, Salmonella enterica subsp. enterica serovar Typhimurium; conditions: Salmonella enterica
Citrobacter freundii = test: Antibacterial activity against Citrobacter freundii after 24 hrs by agar dilution method; assay type: functional
Aeromonas hydrophila = test: Antibacterial activity against Aeromonas hydrophila after 24 hrs by agar dilution method; assay type: functional
Serratia marcescens = test: Antibacterial activity against Serratia marcescens after 24 hrs by agar dilution method; assay type: functional
Staphylococcus aureus = test: Antibacterial activity against Staphylococcus aureus after 24 hrs by agar dilution method; assay type: functional
Streptococcus pneumoniae = test: Antibacterial activity against Streptococcus pneumoniae after 24 hrs by agar dilution method; assay type: functional
Staphylococcus = test: Antibacterial activity against Staphylococcus albus after 24 hrs by agar dilution method; assay type: functional
[2] = test system: Staphylococcus epidermidis; test: Antibacterial activity against Staphylococcus epidermidis after 24 hrs by agar dilution method; assay type: functional
Enterococcus faecalis = test: Antibacterial activity against Enterococcus faecalis after 24 hrs by agar dilution method; assay type: functional
Streptococcus = test: Antibacterial activity against gamma-streptococcus after 24 hrs by agar dilution method; assay type: functional
Escherichia coli = test: Antibacterial activity against Escherichia coli after 24 hrs by agar dilution method; assay type: functional
Shigella sonnei = test: Antibacterial activity against Shigella sonnei after 24 hrs by agar dilution method; assay type: functional

CCn1cc(C(=O)OC)c(=O)c2cc(F)c(Sc3ccccc3)c(Sc3ccccc3)c21
IC50 (Trypanosoma cruzi): 2.4 µg/mL (≈ 5.15 µM)

CCn1cc(C(=O)O)c(=O)c2cc(Sc3ccccc3)c(Sc3ccccc3)c(Sc3ccccc3)c21
IC50 (Trypanosoma cruzi): 39.9 µg/mL (≈ 73.7 µM)

CCn1cc(C(=O)O)c(=O)c2cc(F)c(Sc3ccc(C)cc3)c(Sc3ccc(C)cc3)c21
IC50 (Trypanosoma cruzi): 52.7 µg/mL (≈ 110 µM)

CCn1cc(C(N)=O)c(=O)c2cc(F)c(Oc3ccccc3)c(Oc3ccccc3)c21
IC50 (Trypanosoma cruzi): 4 µg/mL (≈ 9.56 µM)

CCn1cc(C(N)=O)c(=O)c2cc(F)c(Sc3ccccc3)c(Sc3ccccc3)c21
IC50 (Trypanosoma cruzi): > 90 µg/mL

CCn1cc(C(=O)O)c(=O)c2cc(F)c(OCc3ccccc3)c(OCc3ccccc3)c21
IC50 (Trypanosoma cruzi): 1.3 µg/mL (≈ 2.91 µM)

O=C(O)c1cn(C2CC2)c2c(F)c(Oc3ccccc3)c(F)cc2c1=O
MIC (Shigella boydii): 1.56 µg/mL (≈ 4.37 µM) | MIC (Shigella flexneri): > 25 µg/mL | MIC (Proteus mirabilis): 6.25 µg/mL (≈ 17.5 µM) | MIC (Proteus vulgaris): 6.25 µg/mL (≈ 17.5 µM) | MIC (Pseudomonas aeruginosa): 12.5 µg/mL (≈ 35 µM) | MIC (Morganella morganii): 3.13 µg/mL (≈ 8.76 µM) | MIC (Klebsiella pneumoniae): 1.56 µg/mL (≈ 4.37 µM) | MIC [1]: 3.13 µg/mL (≈ 8.76 µM) | MIC (Salmonella typhimurium): 3.13 µg/mL (≈ 8.76 µM) | MIC (Citrobacter freundii): 1.56 µg/mL (≈ 4.37 µM) | MIC (Aeromonas hydrophila): 6.25 µg/mL (≈ 17.5 µM) | MIC (Serratia marcescens): 12.5 µg/mL (≈ 35 µM) | IC50 (Trypanosoma cruzi): > 90 µg/mL | MIC (Staphylococcus aureus): 0.39 µg/mL (≈ 1.09 µM) | MIC (Streptococcus pneumoniae): 0.098 µg/mL (≈ 0.274 µM) | MIC (Staphylococcus): 1.56 µg/mL (≈ 4.37 µM) | MIC [2]: 1.56 µg/mL (≈ 4.37 µM) | MIC (Enterococcus faecalis): 12.5 µg/mL (≈ 35 µM) | MIC (Streptococcus): > 25 µg/mL | MIC (Escherichia coli): 3.13 µg/mL (≈ 8.76 µM) | MIC (Shigella sonnei): 1.56 µg/mL (≈ 4.37 µM)

CCn1cc(C(=O)O)c(=O)c2cc(F)c(Sc3ccccc3)c(F)c21
MIC (Shigella boydii): 12.5 µg/mL (≈ 34.6 µM) | MIC (Shigella flexneri): > 25 µg/mL | MIC (Proteus mirabilis): > 25 µg/mL | MIC (Proteus vulgaris): > 25 µg/mL | MIC (Pseudomonas aeruginosa): > 25 µg/mL | MIC (Morganella morganii): > 25 µg/mL | MIC (Klebsiella pneumoniae): 12.5 µg/mL (≈ 34.6 µM) | MIC [1]: > 25 µg/mL | MIC (Salmonella typhimurium): > 25 µg/mL | MIC (Citrobacter freundii): 12.5 µg/mL (≈ 34.6 µM) | MIC (Aeromonas hydrophila): > 25 µg/mL | MIC (Serratia marcescens): > 25 µg/mL | IC50 (Trypanosoma cruzi): 34.6 µg/mL (≈ 95.7 µM) | MIC (Staphylococcus aureus): 3.13 µg/mL (≈ 8.66 µM) | MIC (Streptococcus pneumoniae): 0.78 µg/mL (≈ 2.16 µM) | MIC (Staphylococcus): > 25 µg/mL | MIC [2]: 3.13 µg/mL (≈ 8.66 µM) | MIC (Enterococcus faecalis): > 25 µg/mL | MIC (Streptococcus): > 25 µg/mL | MIC (Escherichia coli): > 25 µg/mL | MIC (Shigella sonnei): 12.5 µg/mL (≈ 34.6 µM)

CCn1cc(C(=O)O)c(=O)c2cc(F)c(OCc3ccccc3)c(F)c21
MIC (Shigella boydii): 25 µg/mL (≈ 69.6 µM) | MIC (Shigella flexneri): > 25 µg/mL | MIC (Proteus mirabilis): > 25 µg/mL | MIC (Proteus vulgaris): > 25 µg/mL | MIC (Pseudomonas aeruginosa): > 25 µg/mL | MIC (Morganella morganii): > 25 µg/mL | MIC (Klebsiella pneumoniae): 6.25 µg/mL (≈ 17.4 µM) | MIC [1]: > 25 µg/mL | MIC (Salmonella typhimurium): 25 µg/mL (≈ 69.6 µM) | MIC (Citrobacter freundii): 25 µg/mL (≈ 69.6 µM) | MIC (Aeromonas hydrophila): > 25 µg/mL | MIC (Serratia marcescens): > 25 µg/mL | IC50 (Trypanosoma cruzi): 18.3 µg/mL (≈ 50.9 µM) | MIC (Staphylococcus aureus): 6.25 µg/mL (≈ 17.4 µM) | MIC (Streptococcus pneumoniae): 1.56 µg/mL (≈ 4.34 µM) | MIC (Staphylococcus): > 25 µg/mL | MIC [2]: 25 µg/mL (≈ 69.6 µM) | MIC (Enterococcus faecalis): > 25 µg/mL | MIC (Streptococcus): > 25 µg/mL | MIC (Escherichia coli): > 25 µg/mL | MIC (Shigella sonnei): 12.5 µg/mL (≈ 34.8 µM)

O=C(O)c1cn(C2CC2)c2c(F)c(OCc3ccccc3)c(F)cc2c1=O
MIC (Shigella boydii): 1.56 µg/mL (≈ 4.2 µM) | MIC (Shigella flexneri): > 25 µg/mL | MIC (Proteus mirabilis): 6.25 µg/mL (≈ 16.8 µM) | MIC (Proteus vulgaris): 6.25 µg/mL (≈ 16.8 µM) | MIC (Pseudomonas aeruginosa): 6.25 µg/mL (≈ 16.8 µM) | MIC (Morganella morganii): 6.25 µg/mL (≈ 16.8 µM) | MIC (Klebsiella pneumoniae): 0.78 µg/mL (≈ 2.1 µM) | MIC [1]: 3.13 µg/mL (≈ 8.43 µM) | MIC (Salmonella typhimurium): 1.56 µg/mL (≈ 4.2 µM) | MIC (Citrobacter freundii): 1.56 µg/mL (≈ 4.2 µM) | MIC (Aeromonas hydrophila): 3.13 µg/mL (≈ 8.43 µM) | MIC (Serratia marcescens): 6.25 µg/mL (≈ 16.8 µM) | IC50 (Trypanosoma cruzi): > 90 µg/mL | MIC (Staphylococcus aureus): 1.56 µg/mL (≈ 4.2 µM) | MIC (Streptococcus pneumoniae): 1.56 µg/mL (≈ 4.2 µM) | MIC (Staphylococcus): 6.25 µg/mL (≈ 16.8 µM) | MIC [2]: 1.56 µg/mL (≈ 4.2 µM) | MIC (Enterococcus faecalis): 12.5 µg/mL (≈ 33.7 µM) | MIC (Streptococcus): 6.25 µg/mL (≈ 16.8 µM) | MIC (Escherichia coli): 1.56 µg/mL (≈ 4.2 µM) | MIC (Shigella sonnei): 1.56 µg/mL (≈ 4.2 µM)

CCn1cc(C(=O)OC)c(=O)c2cc(F)c(Oc3ccccc3)c(Oc3ccccc3)c21
IC50 (Trypanosoma cruzi): > 90 µg/mL

CCOC(=O)c1cn(CC)c2c(Oc3ccccc3)c(Oc3ccccc3)c(F)cc2c1=O
IC50 (Trypanosoma cruzi): 1.7 µg/mL (≈ 3.8 µM)

CCOC(=O)c1cn(CC)c2c(Sc3ccccc3)c(Sc3ccccc3)c(F)cc2c1=O
IC50 (Trypanosoma cruzi): 6 µg/mL (≈ 12.5 µM)

CCOC(=O)c1cn(CC)c2c(OCc3ccccc3)c(OCc3ccccc3)c(F)cc2c1=O
IC50 (Trypanosoma cruzi): 1.7 µg/mL (≈ 3.58 µM)

CCn1cc(C(=O)O)c(=O)c2cc(F)c(Oc3ccc(O)cc3)c(Oc3ccc(O)cc3)c21
IC50 (Trypanosoma cruzi): 57.1 µg/mL (≈ 126 µM)

CCn1cc(C(=O)O)c(=O)c2cc(OCc3ccccc3)c(OCc3ccccc3)c(OCc3ccccc3)c21
IC50 (Trypanosoma cruzi): 2.5 µg/mL (≈ 4.67 µM)
